Consider 14 compounds from ChEMBL document CHEMBL1138734, “Modulation of binding strength in several classes of active site inhibitors of acetylcholinesterase studied by comparative binding energy analysis” (J Med Chem, 2004).

Bounds are passed on as bounds.

One experiment deals with T1, Acetylcholinesterase (Homo sapiens, UniProt P22303). As to the kind of experiment: Inhibitory activity against of human erythrocyte acetylcholinesterase.
T1 sequence (P22303 whole entry): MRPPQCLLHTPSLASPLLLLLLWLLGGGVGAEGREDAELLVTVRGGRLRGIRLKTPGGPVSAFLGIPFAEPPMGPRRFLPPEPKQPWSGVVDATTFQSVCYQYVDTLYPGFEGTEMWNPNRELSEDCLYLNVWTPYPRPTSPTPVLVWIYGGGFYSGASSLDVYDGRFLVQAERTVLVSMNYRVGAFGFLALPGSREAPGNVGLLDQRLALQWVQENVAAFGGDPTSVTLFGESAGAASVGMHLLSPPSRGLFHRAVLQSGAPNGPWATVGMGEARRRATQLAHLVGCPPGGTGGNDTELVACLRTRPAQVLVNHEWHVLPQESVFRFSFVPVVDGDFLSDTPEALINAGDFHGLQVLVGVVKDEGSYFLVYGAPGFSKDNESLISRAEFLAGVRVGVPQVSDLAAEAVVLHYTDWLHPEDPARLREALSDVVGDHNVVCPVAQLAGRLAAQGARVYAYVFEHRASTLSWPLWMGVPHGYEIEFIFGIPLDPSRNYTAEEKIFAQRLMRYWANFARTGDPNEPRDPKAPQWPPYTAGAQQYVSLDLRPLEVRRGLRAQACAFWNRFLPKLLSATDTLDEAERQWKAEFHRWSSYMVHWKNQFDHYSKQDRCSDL
As to `NC1=C2CCCCC2=NC2CCCCC12` (stereo not given), it took 363 nM to reach half-maximal inhibition (IC50).

A further experiment deals with T1, Acetylcholinesterase.
Description: Inhibitory activity against human erythrocyte acetylcholinesterase
Take `Nc1c2c(nc3ccc(Cl)cc13)OCCC2`: the IC50 (commonly the point on the concentration scale where inhibition reaches its midpoint) is 10000 nM.

`C=C1c2ccc(Cl)cc2N=C2CCCCCN12`: the IC50 is 158 nM. Compared with the last compound, the IC50 is about 63-fold lower.

For `C=C1c2cccc(Cl)c2N=C2CCCCCN12`, the midpoint of inhibition, the IC50, lay at 1510 nM. Against the preceding compound, the IC50 is about 9.6-fold higher.

`S=c1c2ccc(Cl)cc2nc2n1CCCCC2` yielded an IC50 of over 100000 nM.

`Nc1c2c(nc3cccc(F)c13)CCCC2` gave an IC50 of 79.4 nM.

Take `CCC1=CC2Cc3nc4cc(Cl)ccc4c(N)c3C(C1)C2` (stereo not given): the 50% inhibitory concentration (IC50) is 0.324 nM.

In the case of `C=C1c2c(Cl)cccc2N=C2CCCCCN12`, the half-maximal inhibitory concentration (IC50) is 1700 nM.

Take `O=c1c2ccc(Cl)cc2nc2n1CCCCC2`: the IC50 is over 100000 nM.

As for `C=C1c2cc(Cl)ccc2N=C2CCCCCN12`, the half-inhibitory concentration (IC50) was 501 nM.

With `C=C1c2ccccc2N=C2CCCCCN12`, it took 3720 nM to reach half-maximal inhibition (IC50).

Consider `Nc1c2c(nc3cnccc13)OCCC2`, for which half-maximal inhibition (IC50) required 41700 nM.

A further experiment addresses T1, Acetylcholinesterase. The source holds these as a separate data set.
Description: In vitro inhibitory activity against human erythrocyte acetylcholinesterase
Regarding `Nc1c2c(nc3ccc(O)cc13)CCCC2`, the IC50 was 162 nM.

As for `Nc1c2c(nc3cccc(F)c13)C1CC(C2)C1`, half-maximal inhibition (IC50) was put at 28.8 nM.

A further experiment deals with T2, Acetylcholinesterase (Bos taurus, UniProt P23795).
T2 sequence (P23795 whole entry): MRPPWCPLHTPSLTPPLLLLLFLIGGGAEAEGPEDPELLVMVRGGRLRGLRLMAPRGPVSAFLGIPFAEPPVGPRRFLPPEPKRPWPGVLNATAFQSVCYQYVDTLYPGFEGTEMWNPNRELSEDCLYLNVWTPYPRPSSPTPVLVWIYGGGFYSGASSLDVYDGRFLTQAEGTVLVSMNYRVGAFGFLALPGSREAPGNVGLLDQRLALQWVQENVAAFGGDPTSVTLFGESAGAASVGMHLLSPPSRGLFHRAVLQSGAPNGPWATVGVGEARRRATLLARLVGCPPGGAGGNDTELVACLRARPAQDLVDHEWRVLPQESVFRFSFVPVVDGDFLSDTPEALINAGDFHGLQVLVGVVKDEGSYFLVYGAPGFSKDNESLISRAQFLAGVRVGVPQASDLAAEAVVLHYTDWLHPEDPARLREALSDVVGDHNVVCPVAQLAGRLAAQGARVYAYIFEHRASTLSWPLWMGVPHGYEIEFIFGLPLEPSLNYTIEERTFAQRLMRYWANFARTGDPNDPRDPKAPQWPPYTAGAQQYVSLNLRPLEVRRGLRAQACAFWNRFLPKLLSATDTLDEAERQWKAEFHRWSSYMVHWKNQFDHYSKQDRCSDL
Description: In vitro inhibitory activity against bovine acetylcholinesterase
Compound `CCC1=CC2Cc3nc4cc(Cl)ccc4c(N)c3C(C1)C2` (stereo not given) showed a 50% inhibitory concentration (IC50) of 1.29 nM.
